What is called IC50 is the midpoint of a concentration-inhibition curve.

Assay [1] has as its target T1, Histone acetyltransferase p300 [1049-1156] (UniProt Q09472).
T1 construct: 1049-1156
T1 sequence (Q09472 whole entry): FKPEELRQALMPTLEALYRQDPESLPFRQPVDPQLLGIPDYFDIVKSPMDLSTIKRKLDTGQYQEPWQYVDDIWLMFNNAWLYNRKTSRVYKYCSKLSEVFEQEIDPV
Briefly: Inhibitory Activity of Compounds on the Bromodomain (BRD) of CBP/EP300. As for the experimental part:
(§1) A. Experimental MethodCBP and EP300AlphaScreen Test:1. Prepare 1× concentration of test buffer2. Preparation of compoundThe compound was firstly diluted in a ratio of 1:1000 relative to the final concentration using a Precision automatic sampler (by 3× gradient dilution method):1) 50 μL of compound solution with a storage concentration of 10 mM was transferred to A2 well of a 96-well plate using an Echo automatic sampler.2) 30 μL of DMSO was transferred to well A1, and wells A3 to A12 with Precision™.3) 15 μL solution was transferred from A2 to A3 by Precision, and this operation was sequentially repeated until 15 μL solution was transferred from well A10 to well A11. Thus, a 1:3 gradient dilution was completed.4) The compound plate was centrifuged at a speed of 1000 r/min for one minute.3. Preparation of test plate20 nL of solution was transferred from each concentration well of the compound plate to the test plate using an Echo automatic sampler: from well A1 of the preparation plate to wells A1 and A2 of the test plate, and from well A2 of the preparation plate to wells A3 and A4 of the test plate.4. Binding test of bromodomain (BRD)1) Preparation of 2-fold solution of protein and polypeptideThe protein and polypeptide were dissolved in a 1× concentration of detection buffer.2) 10 μL of protein and polypeptide solution was transferred to each well in columns 3 to 24 in the test plate, and 10 μL of 1× test buffer was transferred to wells in columns 1 to 2 in the test plate as negative control.3) The test plate was centrifuged at a speed of 1000 r/min for one minute.4) The test plate was incubated at room temperature for 15 min.5) A 2-fold receptor and donor solution was prepared by dissolving acceptor and donor beads with one-fold test buffer.6) 2-fold receptor and donor solutions were transferred to the test plate.15 μL of acceptor and donor solution was added and light was avoided.7) The test plate was centrifuged at a speed of 1000 r/min for one minute and then incubated at room temperature for 60 min.5. The Endpoints were Read in EnSpire and Alpha Modes.6. Curve fitting

Assay [2] deals with T2, CREB-binding protein [1085-1192] (UniProt Q92793).
T2 construct: 1085-1192
The description is as above. As for the experimental part:
as §1

T2 sequence (Q92793 1085-1192): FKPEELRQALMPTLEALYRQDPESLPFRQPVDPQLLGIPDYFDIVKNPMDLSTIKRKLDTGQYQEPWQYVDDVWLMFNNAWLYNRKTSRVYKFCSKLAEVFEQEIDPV

As for `COc1cccc(-c2nc3cc(C4C(C)=NOC4C)ccc3n2[C@H]2CC[C@H](OC)CC2)c1C1=CC(F)C(F)C=C1` (stereo partly specified) [US12497392, Compound 141], the IC50 in assay [1] stood at 9.6 nM; in assay [2] it was 22 nM.

Turning to `CO[C@H]1C[C@@H](n2c([C@@H]3CCOC(=O)N3C3=CC(F)C(F)C=C3)nc3cc(C4C(C)=NOC4C)ccc32)C1` (stereo partly specified) [US12497392, Compound 143], the IC50 in assay [1] amounted to 2.7 nM; in assay [2], 4.7 nM.

Take `CO[C@H]1CC[C@H](n2c([C@@H]3CCOCC(=O)N3C3=CC(F)C(F)C=C3)nc3cc(C4C(C)=NOC4C)ccc32)CC1` (stereo partly specified) [US12497392, Compound 106]: the IC50 in assay [1] was 2.2 nM; in assay [2], 4.8 nM.

For the origin of these results see BindingDB's records for patent US12497392 (Hinova Pharmaceuticals, 2025).
